Molecular target: recombinant hSSAO (Homo sapiens (Human), UniProt Q16853)
Test: SSAO Activity Assay (MAO-Glo assay kit)
Format: biochemical
Details: 40 μM substrate, 30 mins pre-incubation
Procedure: The biological activities of the compounds of the present application can be assessed with methods and assays known in the art. For example, the potency of the compounds of the present application can be evaluated with an SSAO Activity Assay. Briefly, compounds of the present application can be applied to recombinant hSSAO, hMAO-A, and hMAO-B isoforms and the amine oxidase activity of the enzymes are measured after the addition and subsequent oxidation of the luminogenic substrate (e.g., with the MAO-Glo assay kit from Promega). The IC50 can be calculated, for example, by fitting the dose response curve using a 4-parameter non-linear regression routine.
Amine oxidase activity of recombinant hSSAO, hMAO-A, and hMAO-B isoforms are measured using the MAO-Glo assay kit (Promega, V1402). Ten nL test compounds (with DMSO as vehicle, 0.1% v/v for hSSAO, hMAO-A and hMAO-B) were added into assay plates by Echo, and pre-incubated with 5 μL of enzyme for 30 mins at room temperature before the addition of 5 μL of luminogenic substrate. The substrate concentration is 40 μM for human recombinant SSAO, 40 μM for human recombinant MAO-A, and 4 μM for human recombinant MAO-B. The hSSAO and hMAO-A assays were conducted in the MAO-A reaction buffer in the kit, and the MAO-B assay was conducted in the MAO-B reaction buffer. Oxidation of the substrate was conducted for 1 hr, before the addition of detecting reagent according the manufacture's protocol. The IC50 value of the tested compounds was calculated by fitting the dose response curve using a 4-parameter non-linear regression routine.

recombinant hSSAO, sequence (Q16853 whole entry): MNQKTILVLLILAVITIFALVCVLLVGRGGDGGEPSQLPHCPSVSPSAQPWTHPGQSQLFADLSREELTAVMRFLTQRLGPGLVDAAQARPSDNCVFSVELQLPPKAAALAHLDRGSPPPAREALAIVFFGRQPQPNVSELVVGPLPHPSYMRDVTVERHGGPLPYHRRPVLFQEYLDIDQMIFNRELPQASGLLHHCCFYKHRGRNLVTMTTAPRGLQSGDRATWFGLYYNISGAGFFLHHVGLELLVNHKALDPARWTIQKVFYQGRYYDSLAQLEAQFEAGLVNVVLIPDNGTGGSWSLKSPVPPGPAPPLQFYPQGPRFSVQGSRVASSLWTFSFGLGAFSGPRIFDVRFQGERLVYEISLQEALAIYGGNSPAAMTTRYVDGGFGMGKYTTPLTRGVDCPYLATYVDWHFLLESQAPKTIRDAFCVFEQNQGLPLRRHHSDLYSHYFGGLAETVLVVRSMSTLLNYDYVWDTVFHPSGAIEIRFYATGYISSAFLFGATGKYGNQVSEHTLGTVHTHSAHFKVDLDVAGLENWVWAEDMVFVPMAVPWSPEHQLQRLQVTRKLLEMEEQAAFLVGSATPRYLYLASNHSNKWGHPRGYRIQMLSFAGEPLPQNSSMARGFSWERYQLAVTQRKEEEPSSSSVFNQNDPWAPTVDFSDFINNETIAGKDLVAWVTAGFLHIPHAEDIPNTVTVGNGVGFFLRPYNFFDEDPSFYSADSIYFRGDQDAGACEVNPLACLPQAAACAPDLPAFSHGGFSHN

`NC/C(=C\F)COc1ccc(S(=O)(=O)COC2CCOCC2)cc1` [compound 26, (E)-3-fluoro-2-((4-((((tetrahydro-2H-pyran-4-yl)oxy)methyl)sulfonyl)phenoxy)methyl)prop-2-en-1-amine] and `CC1(COCS(=O)(=O)c2ccc(OC/C(=C/F)CN)cc2)CCOCC1` [compound 31, (E)-3-fluoro-2-((4-((((4-methyltetrahydro-2H-pyran-4-yl)methoxy)methyl)sulfonyl)phenoxy)methyl)prop-2-en-1-amine] fall in the same range of IC50: 0.02 to 0.1 µM for the first, 0.02 to 0.1 µM for the second.

`COCCOCS(=O)(=O)c1ccc(OC/C(=C/F)CN)cc1` [compound 29, (E)-3-fluoro-2-((4-(((2-methoxyethoxy)methyl)sulfonyl)phenoxy)methyl)prop-2-en-1-amine] and `COCC(COC)OCS(=O)(=O)c1ccc(OC/C(=C/F)CN)cc1` [compound 36, (E)-2-((4-((((1,3-dimethoxypropan-2-yl)oxy)methyl)sulfonyl)phenoxy)methyl)-3-fluoroprop-2-en-1-amine] fall in the same range of IC50: 0.02 to 0.1 µM for the first, 0.02 to 0.1 µM for the second.

Compared with `NC/C(=C\F)COc1ccc(S(=O)(=O)Cn2ccccc2=O)cc1` [compound 121, (E)-1-(((4-((2-(aminomethyl)-3-fluoroallyl)oxy)phenyl)sulfonyl)methyl)pyridin-2(1H)-one], `NC/C(=C\F)COc1ccc(S(=O)(=O)CN2CCCC2=O)cc1` [compound 117, (E)-1-(((4-((2-(aminomethyl)-3-fluoroallyl)oxy)phenyl)sulfonyl)methyl)pyrrolidin-2-one] is higher in IC50: 0.02 to 0.1 µM for the first, 0.1 to 0.5 µM for the second.

`CC(C)C(=O)Nc1ccc(CS(=O)(=O)c2ccc(OC/C(=C/F)CN)cc2)cc1` [compound 45, (E)-N-(4-(((4-((2-(aminomethyl)-3-fluoroallyl)oxy)phenyl)sulfonyl)methyl)phenyl)isobutyramide] and `CC(C)n1ccc(CS(=O)(=O)c2ccc(OC/C(=C/F)CN)cc2)cc1=O` [compound 101, (E)-4-(((4-((2-(aminomethyl)-3-fluoroallyl)oxy)phenyl)sulfonyl)methyl)-1-isopropylpyridin-2(1H)-one] fall in the same range of IC50: 0.02 to 0.1 µM for the first, 0.02 to 0.1 µM for the second.

`NC/C(=C\F)COc1ccc(S(=O)(=O)CC2CCOCC2)c(F)c1` [compound 6, (E)-3-fluoro-2-((3-fluoro-4-(((tetrahydro-2H-pyran-4-yl)methyl)sulfonyl)phenoxy)methyl) prop-2-en-1-amine] and `NC/C(=C\F)COc1ccc(S(=O)(=O)CC2CCN(C(=O)C3CC3)CC2)c(Cl)c1` [compound 60, (E)-(4-(((4-((2-(aminomethyl)-3-fluoroallyl)oxy)-2-chlorophenyl)sulfonyl)methyl)piperidin-1-yl)(cyclopropyl)methanone] fall in the same range of IC50: 0.02 to 0.1 µM for the first, 0.02 to 0.1 µM for the second.

`CC1(C)COC(CS(=O)(=O)c2ccc(OC/C(=C/F)CN)cc2)CO1` (centres unmarked) [compound 2, (E)-2-((4-(((5,5-dimethyl-1,4-dioxan-2-yl)methyl)sulfonyl)phenoxy)methyl)-3-fluoroprop-2-en-1-amine] and `CC(C)C(=O)N1CC(CS(=O)(=O)c2ccc(OC/C(=C/F)CN)cc2)C1` [compound 52, (E)-1-(3-(((4-((2-(aminomethyl)-3-fluoroallyl)oxy)phenyl)sulfonyl)methyl)azetidin-1-yl)-2-methylpropan-1-one] fall in the same range of IC50: 0.02 to 0.1 µM for the first, 0.02 to 0.1 µM for the second.

`COC1(CS(=O)(=O)c2ccc(OC/C(=C/F)CN)cc2)CCOCC1` [compound 11, (E)-3-fluoro-2-((4-(((4-methoxytetrahydro-2H-pyran-4-yl)methyl)sulfonyl)phenoxy)methyl) prop-2-en-1-amine] and `NC/C(=C\F)COc1ccc(S(=O)(=O)CC2(O)CCOCC2)cc1` [compound 10, (E)-4-(((4-((2-(aminomethyl)-3-fluoroallyl)oxy)phenyl)sulfonyl)methyl)tetrahydro-2H-pyran-4-ol] fall in the same range of IC50: 0.02 to 0.1 µM for the first, 0.02 to 0.1 µM for the second.

`NC/C(=C\F)COc1ccc(S(=O)(=O)CC23CCC(C(=O)NC4CCC4)(CC2)C3)cc1` [compound 143, (E)-4-(((4-((2-(aminomethyl)-3-fluoroallyl)oxy)phenyl)sulfonyl)methyl)-N-cyclobutylbicyclo[2.2.1]heptane-1-carboxamide] and `NC/C(=C\F)COc1ccc(S(=O)(=O)CC23CC(C(=O)NC4CCC4)(C2)C3)cc1` [compound 138, (E)-3-(((4-((2-(aminomethyl)-3-fluoroallyl)oxy)phenyl)sulfonyl)methyl)-N-cyclobutylbicyclo[1.1.1]pentane-1-carboxamide] fall in the same range of IC50: 0.02 to 0.1 µM for the first, 0.02 to 0.1 µM for the second.

`CC(C)C(=O)N1CCC(C)(COCS(=O)(=O)c2ccc(OC/C(=C/F)CN)cc2)CC1` [compound 33, (E)-1-(4-((((4-((2-(aminomethyl)-3-fluoroallyl)oxy)phenyl)sulfonyl)methoxy)methyl)-4-methylpiperidin-1-yl)-2-methylpropan-1-one] and `CC(C)C(=O)N1CCC(C)(CS(=O)(=O)c2ccc(OC/C(=C/F)CN)cc2)CC1` [compound 53, (E)-1-(4-(((4-((2-(aminomethyl)-3-fluoroallyl)oxy)phenyl)sulfonyl)methyl)-4-methylpiperidin-1-yl)-2-methylpropan-1-one] fall in the same range of IC50: 0.02 to 0.1 µM for the first, 0.02 to 0.1 µM for the second.

First: CC(C)N(C)C(=O)C(C)(C)CS(=O)(=O)c1ccc(OC/C(=C/F)CN)cc1 [compound 95, (E)-3-((4-((2-(aminomethyl)-3-fluoroallyl)oxy)phenyl)sulfonyl)-N-isopropyl-N,2,2-trimethylpropanamide]
Second: CCN(CC(C)CS(=O)(=O)c1ccc(OC/C(=C/F)CN)cc1)C(=O)C(C)C (centres unmarked) [compound 97, (E)-N-(3-((4-((2-(aminomethyl)-3-fluoroallyl)oxy)phenyl)sulfonyl)-2-methylpropyl)-N-ethylisobutyramide]
The IC50 of the first is higher: 0.1 to 0.5 µM for the first, 0.02 to 0.1 µM for the second. The second is the more potent here.

`N#CC1(COCS(=O)(=O)c2ccc(OC/C(=C/F)CN)cc2)CCOCC1` [compound 32, (E)-4-((((4-((2-(aminomethyl)-3-fluoroallyl)oxy)phenyl)sulfonyl)methoxy)methyl)tetrahydro-2H-pyran-4-carbonitrile] and `CC1(COCS(=O)(=O)c2ccc(OC/C(=C/F)CN)cc2)CCN(C(=O)C(C)(C)C)CC1` [compound 34, (E)-1-(4-((((4-((2-(aminomethyl)-3-fluoroallyl)oxy)phenyl)sulfonyl)methoxy)methyl)-4-methylpiperidin-1-yl)-2,2-dimethylpropan-1-one] fall in the same range of IC50: 0.02 to 0.1 µM for the first, 0.02 to 0.1 µM for the second.

`CC(C)N1CCN(CS(=O)(=O)c2ccc(OC/C(=C/F)CN)cc2)C(=O)C1` [compound 135, (E)-1-(((4-((2-(aminomethyl)-3-fluoroallyl)oxy)phenyl)sulfonyl)methyl)-4-isopropylpiperazin-2-one] and `C[C@@H](CS(=O)(=O)c1ccc(OC/C(=C/F)CN)cc1)N1CCCCC1=O` [compound 108, (S,E)-1-(1-((4-((2-(aminomethyl)-3-fluoroallyl)oxy)phenyl)sulfonyl)propan-2-yl)piperidin-2-one] fall in the same range of IC50: 0.02 to 0.1 µM for the first, 0.02 to 0.1 µM for the second.

`NC/C(=C\F)COc1ccc(S(=O)(=O)COC2CCN(C(=O)C3CCCC3)CC2)cc1` [compound 27, (E)-(4-(((4-((2-(aminomethyl)-3-fluoroallyl)oxy)phenyl)sulfonyl)methoxy)piperidin-1-yl)(cyclopentyl)methanone] and `CC(C)(C)C(=O)N1CCC(CS(=O)(=O)c2ccc(OC/C(=C/F)CN)cc2)CC1` [compound 41, (E)-1-(4-(((4-((2-(aminomethyl)-3-fluoroallyl)oxy)phenyl)sulfonyl)methyl)piperidin-1-yl)-2,2-dimethylpropan-1-one] fall in the same range of IC50: 0.02 to 0.1 µM for the first, 0.02 to 0.1 µM for the second.

`CN(C(=O)C1CC1)C12CCC(CS(=O)(=O)c3ccc(OC/C(=C/F)CN)cc3)(CC1)CC2` [compound 78, (E)-N-(4-(((4-((2-(aminomethyl)-3-fluoroallyl)oxy)phenyl)sulfonyl)methyl)bicyclo[2.2.2]octan-1-yl)-N-methylcyclopropanecarboxamide] and `NC/C(=C\F)COc1ccc(S(=O)(=O)CC23CCC(C(=O)N4CCC(F)(F)CC4)(CC2)CC3)cc1` [compound 63, (E)-(4-(((4-((2-(aminomethyl)-3-fluoroallyl)oxy)phenyl)sulfonyl)methyl)bicyclo[2.2.2]octan-1-yl)(4,4-difluoropiperidin-1-yl)methanone] fall in the same range of IC50: 0.02 to 0.1 µM for the first, 0.02 to 0.1 µM for the second.

`COCC(COC)CS(=O)(=O)c1ccc(OC/C(=C/F)CN)cc1` [compound 25, (E)-3-fluoro-2-((4-((3-methoxy-2-(methoxymethyl)propyl)sulfonyl)phenoxy)methyl)prop-2-en-1-amine] and `CC(C)(CN1CCOCC1)CS(=O)(=O)c1ccc(OC/C(=C/F)CN)cc1` [compound 115, (E)-2-((4-((2,2-dimethyl-3-morpholinopropyl)sulfonyl)phenoxy)methyl)-3-fluoroprop-2-en-1-amine] fall in the same range of IC50: 0.02 to 0.1 µM for the first, 0.02 to 0.1 µM for the second.

`NC/C(=C\F)COc1ccc(S(=O)(=O)Cc2cnc(N3CCCC3)nc2)cc1` [compound 103, (E)-3-fluoro-2-((4-(((2-(pyrrolidin-1-yl)pyrimidin-5-yl)methyl)sulfonyl)phenoxy)methyl) prop-2-en-1-amine] and `NC/C(=C\F)COc1ccc(S(=O)(=O)CC2(CN3CCCCC3=O)CC2)cc1` [compound 106, (E)-1-((1-(((4-((2-(aminomethyl)-3-fluoroallyl)oxy)phenyl)sulfonyl)methyl)cyclopropyl)methyl)piperidin-2-one] fall in the same range of IC50: 0.02 to 0.1 µM for the first, 0.02 to 0.1 µM for the second.

Reference: patent US11472769B2, “SSAO inhibitors and use thereof” (Eccogene (Shanghai) Co., Ltd., priority 2019, dated 2022)
